Data reported in US11214561B2, “Histone methyltransferase EZH2 inhibitor, preparation method and pharmaceutical use thereof” (ANCUREALL PHARMACEUTICAL (SHANGHAI) CO., LTD., priority 2017, dated 2022).

Experiments:
[1] = In vivo pharmacokinetics in rats; conditions: SD rats
Description: Test Example 4 Study of In Vivo Pharmacokinetics of the Present Compounds in Rats
Male SD rats (Shanghai Sippr-BK Experimental Animal Co., Ltd) were purchased and kept in Shanghai University of Traditional Chinese Medicine animal center (approved by the ethics committee of Shanghai University of Traditional Chinese Medicine) for 7 days. The rats were randomly divided into 4 groups (˜220 g), 3 rats for each group. Animals were administered intravenously (iv) and orally (po). The rats in po group were starved for 12 hours before administration. After administration, blood was collected from the orbital venous plexus at 0 min (before administration), 2 min, 5 min, 15 min, 30 min, 1 h, 2 h, 4 h, 6 h, 8 h and 24 h. About 200 ul of blood was collected at each time point, and were collected in 1.5 ml centrifuge tube containing heparin sodium. The upper blood […] were collected by centrifugation (8000 rpm, 3 min) and stored at −80° C.
Preparation of test samples: 125.0 mg compound 34 or compound 35 was weighed and added with 4 ml ultrapure water, and 25 ul methanesulfonic acid was added with stirring. The mixture was further stirred until clear and transparent (pH ˜3.32). 1 ml of the above solution was added with 4 ml of ultra-pure water to obtain 5 mg/ml of compound 34 or compound 35 solution (pH=3.5).
Dose and mode of administration: single oral dose (100 mpk) and single intravenous dose (5 mpk).
Administration volume: 4 ml/kg (orally), 1 ml/kg (intravenously).
The plasma concentration of the compound was determined by LC-MS/MS (AB scexqtrap@4500 LCMS/MS system). Pharmacokinetic parameters were calculated by WinNonlin (a professional software). The experiment was repeated once.

Karpas-422 (EZH2 Y641N) = assay: In vitro 50% growth inhibition (GI50), MTT/CCK8, Karpas-422 cells; type: cell-based; conditions: Homo sapiens, KARPAS-422, 144 h; Drug treatment for 6 days
Text: (§1) In the present invention, a representative tumor cell line was selected to determine the cell growth inhibition activity of the present compound. Cell culture conditions and methods were in accordance with the requirements for each cell lines. The cells were subcultured in vitro for less than 3 generations each time, and as required, monoclone purification and identification of cell lines could be carried out.
(§2) The cell culture media used were RPMI1640 (Gibco) comprising 5-20% of fetal bovine serum (Gibco), 1% of double-antibiotic and 2 mM of glutamine.
(§3) Suspension culture cells were collected by centrifugation (1700 rpm, 3 minutes), and the supernatant was discarded and the cells were counted. According to each cell growth cycle, different concentrations of cells were prepared (1-10×10^4 cells per ml) and added to 96-well plates (Corning) with 100 μl per well, and then incubated overnight at 37° C., 5% CO2. The next day, the test compound was added to the cultured cells (2 wells in parallel). The final concentration of the solvent was less than 1/1,000. The cells were further cultured for 6 to 12 days and assayed by MTT.
(§4) The compound was stored at a concentration of 10 mM at −20° C. and diluted to two-fold or 10-fold series prior to use.
(§5) For the suspension culture cells, CCK8 was directly added to 10% of the final concentration. The cells were continually incubated for […].
(§6) The experiments were repeated 3 times and a statistical analysis of data was conducted.

Pfeiffer (EZH2 A677G) = assay: In vitro 50% growth inhibition (GI50), MTT/CCK8, Pfeiffer cells; type: cell-based, Human; conditions: Homo sapiens, Pfeiffer, 240 h; Drug treatment for 10 days
Text: as §1, §2, §3, §4, §5, §6

[2] = system: EZH2 A677G mutant positive-expressing tumor cell line Pfeiffer; assay: In vivo growth inhibition, Pfeiffer subcutaneous transplantation model; conditions: for Tumor volume: 200 mg/kg orally once a day
Text: Test Example 2 Determination of the in vivo growth inhibition activity of the present compounds on EZH2 A677G mutant positive-expressing tumor cell line Pfeiffer NOD/SCID mice were subcutaneously inoculated with human diffuse large cell B lymphoma lymphocyte Pfeiffer (ATCC) expressing EZH2 A677G mutant protein to establish a subcutaneous transplantation model of human B cell lymphoma.
Experimental animals: NOD/SCID mice, female, 9 weeks (weeks of age when tumor cell inoculation), average weight 20.3 g, 18 mice, were purchased from Shanghai Lingchang biotechnology co., Ltd. with animal certificate No.: 2002007656. The breeding environment was SPF grade.
Test samples: the present example compounds 34 (purity: 99.03%) and 35 (purity: 97.6%), solid powder, preserved at −20° C.
Pfeiffer cells were cultured in RPM1640 medium containing 10% of fetal bovine serum. Log-phase Pfeiffer cells were collected and resuspended with PBS to 1×10^8 cells per ml for subcutaneous inoculation in NOD/SCID mice.
All the mice were treated with Co60 irradiation at a dose of 200 rad the day before the inoculation, and 1×10^7 Pfeiffer cells were then subcutaneously inoculated at the right back, and the cells were resuspended in 1:1 PBS and Matrigel (0.1 ml/mouse). When the average tumor volume was 134 mm^3, the mice were randomly grouped according to tumor size. Tumor volume was calculated as: long diameter×short diameter^2/2. The day of tumor cells inoculation was defined as day 0. The test was divided into solvent control group and drug treatment group (compound 34 group and compound 35 group). 6 mice for each group were given orally once a day for a total of 4 weeks. Efficacy was assessed based on relative tumor growth inhibition value (TGI), and safety was assessed based on animal weight change and mortality.
Preparation of test samples: compounds 34 or 35 was weighed and mixed with ultrapure water, and methanesulfonic acid was added for clarification. The PH value was about 1.64 at this moment. 4M NaOH was then added to adjust the PH to 3.5 and bring to volume by ultrapure water, the final concentrations was 20 mg/ml. Determination standard: TGI (%): […].
T/C % refers to the relative value-added rate of tumor, that is, the percentage value of relative tumor volume or tumor weight for the treatment group and the control group at a certain point. T and C were the relative tumor volumes (RTV) of the treatment group and the control group at a specific point, respectively. The calculation formula is as follows: T/C%=TRTV/CRTV*100% TRTV: mean RTV of the treatment group; CRTV: mean RTV of solvent control group; RTV=Vt/V0, V0 was the tumor volume of the animal when grouping, Vt was the tumor volume of the animal after treatment. Statistical analysis: all test results were defined as mean tumor volume±SEM (mean standard error). Tumor volume data of 27 days after the start of treatment were selected for statistical analysis among different groups, and independent sample T test was used to compare whether there were significant differences in tumor volume between the treatment group and the control group. All data were analyzed using SPSS 18.0. P<0.05 was considered as significant difference.

SU-DHL-8 (EZH2 WT) = assay: In vitro 50% growth inhibition (GI50), MTT/CCK8, SU-DHL-8 cells; type: cell-based; conditions: Homo sapiens, SU-DHL-8, 144 h; Drug treatment for 6 days
Text: as §1, §2, §3, §4, §5, §6

[3] = 200 mg/kg, 27th day after the start of treatment
[4] = 200 mg/kg, 27 days after the start of treatment

SMILES: C=CC(=O)N1CCC(N(CC)c2cc(-c3ccc(CN4CCOCC4)cc3)cc(C(=O)NCc3c(C)cc(C)[nH]c3=O)c2C)CC1 [Example 35, N-(4,6-dimethyl-2-oxo-1,2-dihydro-pyridin-3-ylmethyl)-5-[(1-acryloyl-piperidin-4-yl)-ethyl-amino]-4-methyl-4′-(morpholin-4-ylmethyl)-[1,1′-biphenyl]-3-carboxamide]
- bioavailability, in words [1]: good bioavailability
- bioavailability ([1]; male, rat, plasma, IV 5 mg/kg, PO 100 mg/kg, methanesulfonic acid aqueous solution): 39.1%
- GI50 (Karpas-422 (EZH2 Y641N)): 10 to 100 nM
- GI50 (Pfeiffer (EZH2 A677G)): 1 to 10 nM
- body weight during the treatment ([2]; 200 mg/kg dose): maintained a stable body weight
- tolerability ([2]; 200 mg/kg dose): well tolerated
- Tumor volume ([2]; Day 0 after the start of treatment): 134 ± 9 mm^3
- Tumor volume ([2]; Day 3 after the start of treatment): 324 ± 38 mm^3
- Tumor volume ([2]; Day 7 after the start of treatment): 681 ± 72 mm^3
- Tumor volume ([2]; Day 10 after the start of treatment): 635 ± 88 mm^3
- Tumor volume ([2]; Day 14 after the start of treatment): 710 ± 87 mm^3
- Tumor volume ([2]; Day 17 after the start of treatment): 751 ± 135 mm^3
- Tumor volume ([2]; Day 21 after the start of treatment): 801 ± 152 mm^3
- Tumor volume ([2]; Day 24 after the start of treatment): 1029 ± 193 mm^3
- Tumor volume ([2]; Day 27 after the start of treatment, listed as Compound 35): 1116 ± 196 mm^3
- Tumor volume ([2]; Day 27 after the start of treatment, listed as compound 35): 1116 mm^3
- RTV (x ± S), relative tumor volume [2, 3]: 8.2 ± 1.1
- T/C (%), relative tumor volume [2, 3]: 57.7%
- TGI (%), relative tumor volume [2, 3]: 42.3%
- T/C (%), tumor weight [2, 4]: 51.3%
- TGI, tumor weight [2, 4]: 48.7%
- Tumor weight (mg) (x ± S) [2, 4]: 580 ± 99 mg
- anti-tumor effect, in words ([2]; 200 mg/kg, versus solvent control group): significant anti-tumor effects
- GI50 (SU-DHL-8 (EZH2 WT)): > 1000 nM
